Measured values from the CombiSolv-Exp solvation set (Vermeire and Green 2021).

Test: solvent given as SMILES

[N-]=[N+]=O
Settings	solvation free energy, 298 K [kcal/mol]
in CC(C)=O	-1.05
in CC(C)CC(C)(C)C	-0.69
in CC(C)O	-0.48
in CCC(C)=O	-0.94
in CCCCCC	-0.74
in CCCCCCC	-0.65
in CCCCCCCC	-0.6
in CCCCCCCCCC	-0.49
in CCCCCCCCCCO	-0.55
in CCCCCCCCO	-0.45
in CCCCCCO	-0.49
in CCCCCO	-0.5
in CCCCO	-0.55
in CCCCOC(C)=O	-0.98
in CCCO	-0.59
in CCO	-0.61
in CO	-0.69
in COC(C)=O	-1.09
in ClC(Cl)(Cl)Cl	-0.86
in ClC(Cl)Cl	-0.97
in Clc1ccccc1	-0.68
in O	0.31

CCOP(=S)(OCC)SCSP(=S)(OCC)OCC
Settings	solvation free energy, 298 K [kcal/mol]
in O	-6.1

CCC(C)(C)O
Settings	solvation free energy, 298 K [kcal/mol]
in CC(=O)CC(C)=O	-5.07
in CCCCCCC	-3.85
in CCCCCCCC	-3.99
in CCCCCCCCCC	-3.99
in O	-4.43

C=C(C)C(=C)C
Settings	solvation free energy, 298 K [kcal/mol]
in CN1CCCC1=O	-3.55
in CN(C)C=O	-3.53
in O	0.4
in OCCO	-1.73
in OCCOCCO	-2.47
in OCCOCCOCCO	-2.49

CC(C)=CCCC1(C)C2CC3C(C2)C31C (stereo not given)
Settings	solvation free energy, 298 K [kcal/mol]
in O	0.55

CC(=O)OC1CCC2(C)C(=CCC3C2CCC2(C)C(C(C)CCCC(C)C)CCC32)C1 (stereo not given)
Settings	solvation free energy, 298 K [kcal/mol]
in O	-5.48

BrCCBr
Settings	solvation free energy, 298 K [kcal/mol]
in C1COCCO1	-5.84
in ClC(Cl)(Cl)Cl	-5.33
in O	-2.2

Cc1cccs1
Settings	solvation free energy, 298 K [kcal/mol]
in O	-1.38

CC(=O)Nc1ccccc1
Settings	solvation free energy, 298 K [kcal/mol]
in C1COCCO1	-11.8
in O	-9.79

C=CC(C)(C)O
Settings	solvation free energy, 298 K [kcal/mol]
in O	-4.19

CCCCCCCCCCCCCCCCCCCCCCCC
Settings	solvation free energy, 298 K [kcal/mol]
in CC(=O)N(C)C	-16.4
in CC(C)(C)O	-14.6
in CC(C)O	-13.6
in CCC(C)=O	-14.8
in CCCCCCCCCCO	-15.2
in CCCCCCO	-14.2
in CCCCCO	-14.1
in CCCCO	-13.9
in CCCCOC(C)=O	-15.4
in CCCO	-13.8
in CCO	-13.4
in CN(C)C=O	-16.4
in CO	-12.3
in COC(C)(C)C	-16.3
in ClCCl	-16
in O	5.24

Cc1cc(C)cc(O)c1
Settings	solvation free energy, 298 K [kcal/mol]
in CC(C)CC(C)(C)C	-6.48
in CCCCCC	-6.77
in CCCCCCC	-6.71
in CCCCCCCC	-6.69
in O	-6.28

c1ccsc1
Settings	solvation free energy, 298 K [kcal/mol]
in CC(C)O	-3.75
in CCCCCCC	-4.09
in CCCO	-3.71
in CN1CCCC1=O	-4.68
in O	-1.39
in O=CN1CCOCC1	-4.39
in c1ccccc1	-4.65

N#Cc1ccc(O)cc1
Settings	solvation free energy, 298 K [kcal/mol]
in O	-10.2

Cc1ccc(C)c(C)c1
Settings	solvation free energy, 298 K [kcal/mol]
in O	-0.83

C=CCCCCC
Settings	solvation free energy, 298 K [kcal/mol]
in C1CCC2CCCCC2C1	-4.38
in C1CCC(C2CCCCC2)CC1	-4.33
in C=CCCCCCCCCCCCCCC	-4.16
in CC#N	-3.44
in CCC#N	-4.05
in CCCC#N	-3.78
in CCCCC(CC)COC(=O)CCCCC(=O)OCC(CC)CCCC	-4.03
in CCCCC(CC)COC(=O)c1ccccc1C(=O)OCC(CC)CCCC	-3.78
in CCCCCCC	-4.5
in CCCCCCCCC=CCCCCCCCC(=O)OCC(COC(=O)CCCCCCCC=CCCCCCCCC)OC(=O)CCCCCCCC=CCCCCCCCC	-4.07
in CCCCCO	-3.93
in CCCCOC(=O)c1ccccc1C(=O)OCCCC	-3.98
in CCCCOC(C)=O	-4.28
in CCN1CCCC1=O	-3.73
in CCOC(=O)c1ccccc1C(=O)OCC	-3.53
in CCOC(C)=O	-4.07
in CN1CCCC1=O	-3.46
in CN(C)C=O	-3.36
in CS(C)=O	-2.51
in N#CCCCCC#N	-2.8
in N#Cc1ccccc1	-3.92
in NC=O	-1.24
in NCCO	-1.63
in Nc1ccccc1	-3.24
in O	1.66
in O=C1CCCO1	-3
in O=CN1CCOCC1	-2.89
in O=Cc1ccco1	-3.2
in OCCO	-1.45
in OCCOCCO	-2.1
in OCCOCCOCCO	-2.27
in OCCOCCOCCOCCO	-2.4
in OCc1ccco1	-3.1
in c1ccc2c(c1)CCCC2	-4.37
in c1ccc(C2CCCCC2)cc1	-4.31

CC(C)CCCCCOC(=O)c1ccccc1C(=O)OCCCCCC(C)C
Settings	solvation free energy, 298 K [kcal/mol]
in O	-6.43

C=CCC
Settings	solvation free energy, 298 K [kcal/mol]
in C1CCCCC1	-2.47
in CC#N	-1.86
in CC(C)(C)O	-2.03
in CC(C)CC(C)(C)C	-2.26
in CC(C)CCO	-1.99
in CC(C)CO	-1.98
in CC(C)O	-1.98
in CCC(C)(C)O	-2.1
in CCC(C)CO	-1.98
in CCC(C)O	-1.99
in CCC(O)CC	-2.01
in CCCC(C)O	-2.01
in CCCCC	-2.53
in CCCCCC	-2.49
in CCCCCCC	-2.48
in CCCCCCCC	-2.45
in CCCCCCCCC	-2.43
in CCCCCCCCCC	-2.42
in CCCCCO	-2.01
in CCCCO	-2.01
in CCCO	-2.01
in CN(C)C=O	-1.78
in CO	-1.83
in COC(C)=O	-2.21
in Cc1ccc(C)cc1	-2.33
in Cc1cccc(C)c1	-2.3
in Cc1ccccc1C	-2.31
in ClC(Cl)(Cl)Cl	-2.5
in O	1.36
in O=CN1CCOCC1	-1.28

FC(F)(F)c1cccc(C(F)(F)F)c1
Settings	solvation free energy, 298 K [kcal/mol]
in O	1.07

COc1cc(C2c3cc4c(cc3C(O)C3COC(=O)C23)OCO4)cc(OC)c1OC (stereo not given)
Settings	solvation free energy, 298 K [kcal/mol]
in CC(C)O	-25.1
in CCO	-25.3

CC(C)OC(C)(C)C
Settings	solvation free energy, 298 K [kcal/mol]
in CC(=O)N(C)C	-3.75
in CCCCN(C=O)CCCC	-3.87
in CN1CCCCC1=O	-3.66
in CNC(C)=O	-3.62
in O	-1.01

CCCCOC(=O)c1ccccc1C(=O)OCc1ccccc1
Settings	solvation free energy, 298 K [kcal/mol]
in O	-9.55

CCCCCCCCCCCC(=O)OC
Settings	solvation free energy, 298 K [kcal/mol]
in O	-2.91

CCCCNCc1ccc(C)cc1
Settings	solvation free energy, 298 K [kcal/mol]
in O	-5.47
